Data taken from patent US9718879B2, “Methods of treating pain by inhibition of VGF activity” (IMPERIAL INNOVATIONS LTD., priority 2012, dated 2017).
“Also recorded” adds a separate entry of the source. No end group written: not given here.

Tests used:
[1] = system: cultured bone marrow-derived macrophages; test: TLQP-21-elicited intracellular Ca2+ increase in cultured macrophages (Fluo-4); assay type: cell-based; settings: for increase in intracellular Ca2+ levels: 100 nM peptide, cultured macrophages, Fluo-4
Description: (§1) Cell images show the Fluo-4 fluorescence associated with different time points during the recording.
(§2) A possible explanation for the absence of a Ca2+ response from a second application of TLQP-21 is that there is a biological de-sensitisation occurring such as phosphorylation of the receptor. It is also possible that this could be due to depletion of Ca2+ in internal stores such as ER, however, this is less likely because the de-sensitisation occurs even with sufficient time (2 hours) to recover and replenish the Ca2+, and ATP treatment gave an increase in intracellular Ca2+ levels. Actually this de-sensitisation by TLQP-21 has also been observed in cerebellar granule cells.
These peptides were either commercially sourced or provided by Neusentis/Pfizer. The effects of VGF peptides on sensory neurons was analysed using whole-cell current-clamp recordings on cultured DRG neurons. Responses of cells to depolarising current pulses will be analysed before and after superfusion of peptides and their efficacy and potency established. The nociceptive phenotype of the cells was confirmed by superfusing capsaicin to the cells at the end of the recordings, and analysing the action potential and current threshold of the cells. Based on our pilot data with LQEQ-19, we expected that some of these peptides will increase the activity of nociceptive neurons. The activation of microglia and macrophage was studied on two parameters, intracellular Ca^2+ increase and P38 MAP kinase phosphorylation. The phosphorylation levels of P38 MAP kinase was investigated as shown before^20. Once we identified peptides capable of activating sensory neurons and/or microglia/macrophage, confirmed the specific effects using scrambled peptides.

cultured brain microglia = test: Intracellular Ca2+ increase in cultured brain microglia; assay type: cell-based, rat; settings: 100 nM
Description: as §1, §2
(§3) Ccl11 has been linked to inflammation^23, while Cxcl9 is known as a natural antagonist to Ccl11 receptor CCR3^24. We then used Sulfo-EMCS-conjugated TLQP-21 to purify and identify receptor(s) for TLQP-21. […] The membrane fractions of rat brain was incubated with the crosslinker-conjugated TLQP-21, and analysed by Tricine-PAGE and Western blotting using Streptavidin-HRP for the biotin tag on TLQP-21. […] The membrane fraction of rat brain was applied to a TLQP-21 attached column, and the elutions were analysed on SDS-PAGE and silver staining for direct comparison to the negative control (without TLQP-21). […] The ˜30 kDa bands from both gels were cut out, trypsinised and analysed using LC-MS/MS Orbitrap.

[2] = system: chemokines Ccl11 and Cxcl9 in microglia; test: PCR array of chemokine expression in microglia upon TLQP-21 stimulation; assay type: cell-based
gC1qR = target: T1, gC1qR (Rattus norvegicus, UniProt O35796); test: Receptor identification by chemical cross-linking / monomeric avidin column and LC-MS/MS; assay type: binding; settings: rat brain / spinal cord membrane fractions; ~30 kDa band identified by LC-MS/MS
T1 construct: from tissue; host or cells: membrane fractions of rat brain (P4) and of 6 weeks old rat brain and spinal cord
T1 sequence (O35796 72-279): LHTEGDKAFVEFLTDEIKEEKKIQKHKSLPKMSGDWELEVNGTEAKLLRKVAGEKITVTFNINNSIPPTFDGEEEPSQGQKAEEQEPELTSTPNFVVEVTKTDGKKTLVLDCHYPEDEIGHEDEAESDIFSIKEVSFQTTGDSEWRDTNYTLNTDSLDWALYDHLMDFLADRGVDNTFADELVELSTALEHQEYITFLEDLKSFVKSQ
Description: FIG. 3A-F gC1qR is the receptor for TLQP-21. a, Biotinylated TLQP-21 was conjugated to Sulfo-EMCS cross-linker, and applied to membrane fractions of 6 weeks old rat brain and spinal cord for cross-linking (boric acid buffer, pH 8, with 150 mM NaCl, 3 hours incubation on ice). The reaction was terminated using 50 mM Tris buffer, and samples were ethanol precipitated and resolved using Tricine-PAGE and visualised by Western blot analysis by streptavidin-horse radish peroxidase. […] C, The ˜30 kDa band was analysed by LC-MS/MS Orbitrap following trypsinisation.
as §3, with “CCR3^24.” for “CCR3^24. We then used Sulfo-EMCS-conjugated TLQP-21 to purify and identify receptor(s) for TLQP-21.”, “Orbitrap. […]” for “Orbitrap.”
To elucidate the identity of the ˜30 kDa protein, which were apparent in two different experiments, the protein band from the monomeric avidin experiment was analysed using LC-MS/MS Orbitrap. […]

paw withdrawal threshold = test: Intraplantar (hind paw) injection of peptide-treated macrophages, Von Frey paw withdrawal threshold; assay type: in vivo, rat
Description: FIG. 6A-C Intraplantar injection of macrophages stimulated with TLQP-21 can evoke mechanical hypersensitivity, and anti-gC1qR antibody reverses mechanical hypersensitivity in partial sciatic nerve ligation (PSNL) model. a, 80,000 macrophages treated with 100 nM TLQP-21 (closed circle) and scrambled TLQP-21 (open circle) for 24 hours have been intraplantarly injected into 3 weeks old male rats. Mechanical sensitivity was examined by electrical Von Frey test. […] C, Time course of paw withdrawal thresholds to Von Frey mechanical stimulation on an left hind paw of PSNL model rats. The left sciatic nerve was exposed, tied with non-absorbable silk thread, and wrapped loosely with a oxidized regenerated cellulose previously soaked in 200 μl of PBS (open triangle) or PBS containing 25 μg of anti-gC1qR (closed circle) or control antibodies (open circle). […] Mean±s.e.m. *P<0.05 vs controls.
Macrophages were treated with either 100 nM TLQP-21 or 100 nM scrambled TLQP-21 for 24 hours in culture. Following wash with PBS, macrophages (35,000 cells in 50 μl) were injected into the left hind paw. Ipsilateral paw withdrawal latency to Von Frey mechanical stimulation was measured at 1, 2, and 3 days after injection (n=9).
We hypothesised that macrophages stimulated by TLQP-21 affects sensory neurons and alter the mechanical sensitivity. We tested this hypothesis by measuring paw withdrawal thresholds in normal rats after hind paw injection of cultured macrophages that had been pre-treated with either TLQP-21 or ScrTLQP-21 for 24 hours. […] This effect lasted for 48 hours after injection. […] We then examined if in vivo application of the neutralising gC1qR antibody can prevent or delay development of neuropathic pain in PSNL model rats. The gC1qR antibody was applied to the site next to nerve ligation, in a cellulose membrane soaked form.

[3] = system: ipsilateral hind limb mechanical sensitivity; test: Intraplantar injection of LQEQ-19, sensitivity to mechanical stimuli; assay type: in vivo, rat; settings: 275 microgram
Excerpt: (§4) On the other hand, another VGF-derived peptide LQEQ-19 seems to have a direct role on DRG neurons. […] In summary, there are at least three active VGF peptides involved in pain pathways, i.e., TLQP-62, TLQP-21 and LQEQ-19, and four types of cells, namely, spinal microglia, macrophage, nociceptive DRG neurons, and dorsal horn neurons, which respond to these peptides. In this project we will focus on the putative role of VGF peptides in regulating the activity/excitability of DRG neurons and the novel VGF-induced signaling pathway in microglia/macrophage.

[4] = system: nociceptors (C-fibre component of compound action potentials in dorsal roots); test: Compound action potential recordings in dorsal roots after application to DRG; settings: application of LQEQ-19 to DRG, in vitro
Excerpt: (A) Typical average trace of 12 compound action potential recordings. The record was divided into 3 components according to the conduction velocities of Aβ fibres (6.2 m/s-2.1 m/s), Ad fibres (2.1 m/s-0.8 m/s) and C fibres (0.8 m/s-0.1 m/s) fibres. (B) Maximum amplitudes of Aβ, Ad and C components of compound action potentials. (C) Area under the curve of Aβ, Ad and C compound action potential. Bold line on the X axis indicates LQEQ-19 application
as §4

[5] = system: p38 MAP kinase in spinal microglia and BV-2 microglial cell line; settings: cited from earlier work
pain behaviour = settings: in vivo; cited from earlier work
[6] = system: p38 MAP kinase in spinal microglia; settings: mice injected intrathecally; cited from earlier work
[7] = system: mechanical and cold sensitivity; settings: intrathecal application to rats; cited from earlier work
spinal cord slices = settings: cited from earlier work
hippocampal neurons = settings: cited from earlier work

With “Thr-Leu-Gln-Pro-Pro-Ala-Ser-Ser-Arg-Arg-Arg-His-Phe-His-His-Ala-Leu-Pro-Pro-Ala-Arg [TLQP-21]” the “de-sensitisation to subsequent TLQP-21 stimulation” value ([1]; 100 nM TLQP-21, macrophages, ATP response not desensitised) was “densensitises macrophage to further TLQP-21 stimulation; also recorded: induced de-sensitisation to subsequent TLQP-21 treatments”, the “increase in intracellular Ca2+ levels” value [1] was “elicits an increase in intracellular Ca2+ levels; also recorded: drives an increase in intracellular Ca2+; also recorded: causes intracellular Ca^2+ increase; also recorded: caused transient increase in intracellular Ca2+ levels” and the “intracellular Ca2+ increase when extracellular Ca2+ is depleted” value ([1]; macrophages, extracellular Ca2+ depleted) was “still observed”. The “increase in intracellular Ca2+” value (cultured brain microglia) was “causes an increase in intracellular Ca2+; also recorded: responded to TLQP-21 similarly to macrophages”, the Ccl11 upregulated [2] was 2.78 fold and the Cxcl9 downregulated [2] was 2.28 fold. The “binding to the receptor gC1qR” value (gC1qR) was “co-purified with TLQP-21; also recorded: binds to the receptor gC1qR”, the “duration of the effect on paw withdrawal threshold after injection” value (paw withdrawal threshold; injection of macrophages stimulated by TLQP-21) was 48 h and the tactile allodynia (paw withdrawal threshold; macrophages treated with 100 nM peptide 24 hours, 35,000 cells in 50 μl into left hind paw, 1, 2, 3 days, n=9) was “produced tactile allodynia”. The paw withdrawal threshold (paw withdrawal threshold; macrophages treated with 100 nM peptide for 24 hours, 80,000 cells injected intraplantarly, Von Frey) was “caused reduction of paw withdrawal thresholds at 24 and 48 hours after injection; also recorded: decreased markedly”.

In the case of “LQEQEELENYIEHVLLHRP [VGF-derived peptide]”, the “time of development of hypersensitivity after injection” value [3] is reported as 10 min, the “hypersensitivity to mechanical stimuli” value ([3]; ipsilateral hind limb, p≦0.001 vs vehicle) is reported as “associated with a hypersensitivity to mechanical stimuli; also recorded: causes a mechanical hypersensitivity in vivo” and the “C-fibre component of compound action potentials (amplitude, area under the curve); sensitisation of nociceptors” value [4] is reported as “sensitises nociceptors in vitro; also recorded: significantly increases both the amplitude and the area under the curve”. The “p38 MAP kinase phosphorylation” value [5] was “causes P38 MAP kinase phosphorylation; also recorded: induces p38 MAP kinase phosphorylation”, the “pain behaviour in the formalin test” value (pain behaviour) was “enhances pain behaviour” and the “phosphorylated p38 MAP kinase in spinal microglia” value [6] was “increase of phosphorylated p38 MAP kinase”.

For “cross-linker-conjugated TLQP-21: TLQP-21 with N-terminal biotin and extra C-terminal cysteine, conjugated to Sulfo-EMCS cross-linker (TLQPPASSRRRHFHHALPPARC; cyclised or stapled)”, the “increase in intracellular Ca2+ levels” value [1] was “able to induce an increase in intracellular Ca2+ levels similar to the wild type TLQP-21”.

B1: Thr-Leu-Gln-Pro-Pro-Ala-Ser-Ser-Arg-Arg-Arg-His-Phe-His-His-Ala-Leu-Pro-Pro-Ala-Arg-His-His-Pro-Asp-Leu-Glu-Ala-Gln-Ala-Arg-Arg-Ala-Gln-Glu-Glu-Ala-Asp-Ala-Glu-Glu-Arg-Arg-Leu-Gln-Glu-Gln-Glu-Glu-Leu- … (peptide)
chain: TLQPPASSRRRHFHHALPPARHHPDLEAQARRAQEEADAEERRLQEQEELENYIEHVLLHRP
modifications: TLQP-62 peptide from VGF
notes: VGF-derived peptide
In the case of B1, the “pain behaviour (mechanical and cold allodynia)” value [7] is listed as “induces pain behaviour (cold and mechanical hypersensitivity); also recorded: long-lasting mechanical and cold behavioural allodynia”, the “frequency of spontaneous excitatory post synaptic currents” value (spinal cord slices) is listed as “increase in the frequency of spontaneous excitatory post synaptic currents” and the synaptic activity (hippocampal neurons) is listed as “increase synaptic activity”.
